Paper PMC12610161, “Structural Engineering of Tyrosine-Based Neuroprotective Peptides: A New Strategy for Efficient Blood–Brain Barrier Penetration” (Foods, 2025)
Values joined by “and” are separate entries in the source; they are usually repeats but may differ in a detail not shown here. Equal entries are not always repeated. Where two headings read alike, the source gives them in different places. Ends that are not written are not given here.

Tests used:
[1] = ABTS radical scavenging activity; conditions: 1 mg/mL; 6 min, 734 nm
Experimental: ABTS scavenging radical determination was conducted following the procedure of Li et al. with slight modifications. A 7 mmol/L aqueous solution of ABTS and a 2.49 mmol/L aqueous solution of potassium persulfate were mixed in a 1:1 ratio. The mixture was allowed to stand in the dark at 4 °C for 12–16 h. The concentration was adjusted using 5 mmol/L PBS (pH 7.4) to ensure that the absorbance of the ABTS radical stock solution was 0.700 ± 0.002 at a wavelength of 734 nm. EV and TW peptide aqueous solutions (10 µL), each at a concentration of 1 mg/mL, were taken. A glutathione aqueous solution with the same substrate concentration was used as the control group. After adding the samples to a black 96-well plate, 190 µL of ABTS free radical working solution was added to each well. The absorbance at 734 nm was measured using a microplate reader after a 6 min reaction.
The ABTS clearance was calculated as follows:(2) ABTS radical scavenging rate % = 1−Aa−Ab/Ac×100% where Aa represents the sample; Ab represents the absorbance of the solution in which the ABTS working solution was substituted with 5 mmol/L PBS; Ac represents the absorbance of the blank group.

[2] = Oxygen radical absorbance capacity (ORAC) assay; conditions: substrate concentration 1 mg/mL (printed for EV peptides)
Experimental: ORAC assay was performed based on the technique of Simon et al., with minor modifications. First, in black 96-well plates, 25 µL of PBS buffer (75 mmol/L, pH 7.4), 25 µL of Trolox standard solutions (at concentrations of 6.25 µM, 12.5 µM, 25 µM, 50 µM), and the peptide solution were added at a 1:1 volume ratio. Then, the samples were incubated at 37 °C for 10 min. Subsequently, 150 µL of […] sodium fluorescein was added to all wells and incubated at 37 °C for 20 min. Following this, 25 µL of 6 mmol/L azobisisobutyramidine hydrochloride (AAPH) solution was quickly added to each well. Two control groups were established: one consisted of a black 96-well plate with free radicals (+AAPH), while the other group included a black 96-well plate without free radicals (−AAPH). Both plates were placed in a microplate reader and shaken for 5 s. The excitation wavelength was set to 485 ± 20 nm, and the emission wavelength was set to 530 ± 10 nm. The entire system was set at 37 °C, and the fluorescence intensity was measured every 2 min. […]
The measurement results were expressed as ORAC values using the following formula:ORAC value = [(AUCpeptide − AUCblank)/(AUtrolox − AUCblank)] × Ctrolox/Cpeptide(4) […]

[3] = DPPH radical scavenging activity; conditions: substrate concentration 1 mg/mL (printed for EV peptides); 30 min, 517 nm
Experimental: A modified DPPH scavenging assay was conducted following the method described by Shen et al.. 0.0023 g of DPPH was mixed with 100 mL of 95% absolute ethanol to prepare a 60 µmol/L DPPH radical working solution. The sample was then mixed with 60 µmol/L DPPH free radical working solution at a 1:1 (v/v) ratio, mixed thoroughly, and allowed to stand in the dark for 30 min. The mixture was then centrifuged at 4500 rpm for 10 min. The absorbance was measured at a wavelength of 517 nm and compared with an equivalent concentration of GSH. The DPPH radical scavenging rate was calculated using the following formula:(1) DPPH radical scavenging ratio % = 1−Aa−Ab/Ac×100% where Aa represents the absorbance value of EV, TW and YV peptides solution added to DPPH scavenging radical working solution; Ab denotes the absorbance value of the solution with 95% (v/v) absolute ethanol and the […] scavenging radical working solution; Ac is the absorbance value after mixing distilled water and DPPH in equal volumes of 1:1.

[4] = Transwell in vitro BBB model, apparent permeability; format: in vitro ADME; conditions: mouse, 100 µM in upper chamber, bEnd.3 monolayer, RP-HPLC of lower chamber
Experimental: The method described by Han et al. was referenced and modified. Briefly, 500 µL of bEnd.3 cells at a density of 5 × 10^4 cells/mL were seeded in the upper chamber of Transwell (0.4 µm, 12-well, PET material), and 1.5 mL of DMEM was added to the lower chamber to ensure the upper and lower chambers were aligned. After cell adherence, the culture medium in the upper chamber was changed daily, while the culture medium in the lower chamber was changed every other day. Once the transendothelial electrical resistance (TEER) was > 200 Ω·cm^2, both the upper and lower chambers were replaced with serum-free DMEM. After 12 h, EV and TW peptides, solubilized in HBSS at a concentration of 100 µM, were added to the upper chamber. After 4 h, the samples were collected separately, and RP-HPLC detection, along with Origin 2021 mapping analysis, was performed. TEER and apparent permeability coefficient (Papp) were calculated as follows:TEER = (TEERsample − TEERcontrol) × Cell Culture Area(5) (6) Papp=∆C·V/∆t·C0·A(cm/s) where ΔC represents the concentration in the lower chamber (µM), V is the volume of the lower chamber (mL), Δt indicates the experimental time (s), C0 is the initial concentration in the upper chamber, and A is the membrane area of the Transwell (cm^2).

in vitro [5] = experiment: in vitro
Experimental: Walnut peptides were dissolved in distilled water to prepare a 100 µM aqueous solution. The pH was adjusted to 2.0, and pepsin was added to simulate gastric juice digestion. After 1 and 2 h in a 37 °C water bath, 1 mL of the sample was taken and stored at 4 °C for subsequent use. The pH of the remaining solution was then adjusted to 7.0, and 5 mg/mL trypsin was added to simulate intestinal digestion. After 1 and 2 h in a 37 °C water bath, 1 mL samples were taken, filtered through a 0.22 µm pore size membrane, and analyzed via RP-HPLC.
(§1) Gradient elution was conducted with a mobile phase consisting of pure water with 0.1% TFA (mobile phase A) and acetonitrile containing 0.1% TFA (mobile phase B). […] This was performed for 25 min at a flow rate of 1 mL/min.

in vitro [6] = conditions: KM, mouse, plasma; for half-life at 166.7 µM: In vitro plasma half-life
Experimental: The plasma half-life was evaluated utilizing KM mice (20 ± 2 g) obtained from Changsheng Biotechnology Co., Ltd. (Benxi, Liaoning, China). After the adaptation period, the mice were euthanized by cervical dislocation. Blood was collected from the heart and immediately transferred into an EP tube containing heparin sodium. After standing for 2 h, the plasma was separated by centrifugation at 4500 rpm at 4 °C for 15 min. A 500 µL aliquot of 500 µM peptide solution was added to 1 mL of blank plasma, mixed thoroughly by vortexing, and methanol was added in a 1:3 ratio. After vortexing for 1 min, the mixture was centrifuged at 12,000 rpm for 10 min, and the resulting supernatant was collected for RP-HPLC analysis.
Gradient elution was conducted with a mobile phase consisting of pure water with 0.1% TFA (mobile phase A) and acetonitrile containing 0.1% TFA (mobile phase B). The elution process for mobile phase B was as follows: [sequence]: 10−35%, [sequence]: 8−33%, [sequence]: 5−30%, [sequence]: 4−29%, TWLPLPR: 24−49%, TWLPYPR: 21−46%, TWLPRPR: 16−41%, TWLPKPR: 15−40%, YVPFPLP, YVPFPYP: 11–34%. This was performed for 25 min at a flow rate of 1 mL/min.

HT22 cells = format: cell-based; conditions: mouse, 24 h, 100 µM
Experimental: Mouse brain microvascular endothelial cells (bEnd.3) and mouse hippocampal neuron cells (HT22) were purchased from Zhong Qiao Xin Zhou Biological Technology Ltd. (Shanghai, China). Cells were cultured in DMEM (Cat # 11965092, Gibco, New York, USA) supplemented with 1% (v/v) penicillin/streptomycin (MA0110, MeilunBio, Dalian, China) and 10% (v/v) fetal bovine serum (C04001-500, Vivacell, Shanghai, China) in a 5% CO2 humidified incubator at 37 °C, and passaged every 2 days. When cell confluence reached 85–90%, cells were seeded into 6/12 well plates at a density of 1 × 10^5 cells/mL. Once the confluence reached 85–90% again, the cells were cultured in H2O2 medium at varying concentrations for 2 h as a model group. Cell viability was assessed using MTT at 0.1 mg/mL, and the optimal H2O2 concentration was determined when the cell viability approached 50%.
When cell confluence reached 80–90%, they were incubated with 100 µM EV peptides and TW peptides, respectively, for 24 h, followed by injury with 800 µM H2O2 for 2 h to observe the protective effect of the peptides. Among them, the model group was directly injured after 24 h of incubation with DMEM.

in vivo = conditions: C57/BJ, mouse, po
Experimental: Six C57/BJ mice were randomly selected, and the peptides [sequence] and [sequence] were administered via gavage, respectively. After 10 h, the mice were euthanized by cervical dislocation, and the brains were harvested. For analysis, 3 mL of normal saline was added to each gram of brain tissue, which was then homogenized. The sample was diluted in a ratio of 1:3 with methanol solution, mixed thoroughly, and centrifuged at 12,000 rpm for 10 min. The resulting supernatant was collected for RP-HPLC analysis.
as §1

in vitro BBB model = conditions: cited from earlier work
[7] = design: method as in PMID 22934681; conditions: cited from earlier work
[8] = design: method as in PMID 29463072; conditions: cited from earlier work

N[C@@H](CCC(=O)N[C@@H](CS)C(=O)NCC(=O)O)C(=O)O [GSH, glutathione]
ABTS radical scavenging rate [1]: 73.20 ± 2.54%
ORAC value [2]: 1003.3 ± 18.6 µmol TE/g
DPPH radical scavenging rate [3]: 70.98 ± 1.09% and 70 ± 1.09%

EVSGPGKSPN [EVSGPGKSPN]
Papp A→B at 4 h, 100 µM [4]: 1.36 ×10⁻⁶ cm/s

EVSGPGLSPN [EVSGPGLSPN]
recovery at 100 µM (in vitro [5]): 19.5 ± 3.33%
Papp at 4 h, 100 µM [4]: 3.78 ×10⁻⁶ cm/s
metabolised at 48 h, 167 µM (in vitro [6]): 2.23%
remaining at 1 h, 167 µM (in vitro [6]): 99.75 ± 0.35%
remaining at 2 h, 167 µM (in vitro [6]): 99 ± 0.75%
remaining at 4 h, 167 µM (in vitro [6]): 98.13 ± 0.06%
remaining at 8 h, 167 µM (in vitro [6]): 97.86 ± 0.49%
remaining at 12 h, 167 µM (in vitro [6]): 96.86 ± 0.5%
remaining at 24 h, 167 µM (in vitro [6]): 95.62 ± 0.64%
remaining at 36 h, 167 µM (in vitro [6]): 94.96 ± 0.36%
remaining at 48 h, 167 µM (in vitro [6]): 94.77 ± 0.64%
half-life at 166.7 µM (in vitro [6]): > 48 h
Cell viability (MTT) (HT22 cells): 78.63 ± 0.86%
tissue level at time at 10 h (in vivo): 250 ± 110 ng/g

EVSGPGYSPN [EVSGPGYSPN]
recovery at 100 µM (in vitro [5]): 13.99 ± 0.02%
Papp at 4 h, 100 µM [4]: 8.1 ×10⁻⁶ cm/s
remaining at 1 h, 167 µM (in vitro [6]): 96.64 ± 0.53%
remaining at 2 h, 167 µM (in vitro [6]): 92.42 ± 0.74%
remaining at 4 h, 167 µM (in vitro [6]): 80.5 ± 0.65%
remaining at 8 h, 167 µM (in vitro [6]): 58.64 ± 0.52%
remaining at 12 h, 167 µM (in vitro [6]): 51 ± 0.64%
remaining at 24 h, 167 µM (in vitro [6]): 24.3 ± 1.94%
remaining at 36 h, 167 µM (in vitro [6]): 0%
remaining at 48 h, 167 µM (in vitro [6]): 0%
half-life at 166.7 µM (in vitro [6]): > 12 h
Cell viability (MTT) (HT22 cells): 86.88 ± 3.18%
tissue level at time at 10 h (in vivo): 1250 ± 910 ng/g

Gly-Sar
Apparent permeability (in vitro BBB model): 7.60 ± 1.29 µL/g/min

H-Tyr-D-Ala-Gly-MePhe-Gly-ol
Plasma half-life ([7]; embedded and delivered with GSH-PEG liposomes): 6.9 ± 2.3 h
Plasma half-life ([7]; free peptide): 0.153 ± 0.035 h

TWLPKPR [TWLPKPR]
Papp A→B at 4 h, 100 µM [4]: 3.45 ×10⁻⁶ cm/s

TWLPLPR [TWLPLPR]
Papp A→B at 4 h, 100 µM [4]: 6.85 ×10⁻⁶ cm/s

TWLPYPR [TWLPYPR]
Papp A→B at 4 h, 100 µM [4]: 7.06 ×10⁻⁶ cm/s

YVPFPLP [YVPFPLP]
Papp A→B at 4 h, 100 µM [4]: 0.999 ×10⁻⁶ cm/s

YVPFPYP [YVPFPYP]
Papp at 4 h, 100 µM [4]: 3.62 ×10⁻⁶ cm/s

eveltivir
Maximum concentration in the brain [8]: 46.5 ± 3.5 ng/g
